According to PubChem BioAssay (NCI):
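Method: 48-hour compound exposure of cells in 96-well plates, five concentrations, linear interpolation of endpoints. GI50: concentration for 50% inhibition of growth. TGI marks complete inhibition of growth.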

What was measured:
Experiment in all cases: NCI tumour cell line growth inhibition, 48 h
[1] = tested on: EKVX NSCLC
[2] = tested on: IGROV1 ovarian
[3] = tested on: MDA-N
[4] = tested on: HT29 colon
[5] = tested on: COLO 205 colon
[6] = tested on: NCI/ADR-RES ovarian
[7] = tested on: OVCAR-8 ovarian
[8] = tested on: SR leukemia
[9] = tested on: MDA-MB-231 breast
[10] = tested on: U251 CNS

| Structure (SMILES) | TGI [1] | TGI [2] | TGI [3] | TGI [4] | TGI [5] | TGI [6] | TGI [7] | TGI [8] | TGI [9] | TGI [10] | GI50 [1] | GI50 [2] | GI50 [4] | GI50 [5] | GI50 [10] | GI50 [8] | GI50 [9] | GI50 [7] |
| --- | --- | --- | --- | --- | --- | --- | --- | --- | --- | --- | --- | --- | --- | --- | --- | --- | --- | --- |
| O=[N+]([O-])c1cc(Cl)ccc1S(=O)(=O)c1cc(Cl)cc2c1NCCC2 | > 100 µM | > 100 µM | > 100 µM | > 100 µM | > 100 µM | > 100 µM | > 100 µM | > 100 µM | > 100 µM |  |  |  |  |  |  |  |  |  |
| CC(C)(Oc1ccc(C(=O)c2ccc(Cl)cc2)cc1Cl)C(=O)N1CCN(c2ccccc2)CC1 | > 100 µM | > 100 µM |  | > 100 µM |  |  | > 100 µM | > 100 µM |  | > 100 µM |  |  |  |  |  |  |  |  |
| COc1cc(C(CC(OC)OC)=C(C#N)C#N)cc(OC)c1OC | > 100 µM | > 100 µM |  | 73.4 µM | 26.6 µM |  | 73 µM | > 100 µM |  | 91.4 µM |  |  |  |  |  |  |  |  |
| COc1c(Cl)c(Cl)c(OC)c2c1C(=O)C=CC2=O | 31.8 µM | 56.9 µM |  | 87.2 µM | 31.7 µM |  | 32.1 µM | 42.9 µM |  | 40.4 µM |  |  |  |  |  |  |  |  |
| Cc1cnc2[nH]c(-c3cccc(Cl)c3)cc(=O)c2c1 | > 100 µM | > 100 µM |  |  | > 37.1 µM | > 100 µM | > 100 µM | > 100 µM | 1.46 µM | 92.2 µM |  |  |  |  |  |  |  |  |
| CC(=O)N1C(OCc2ccccc2)CCN1c1ccccc1 (stereo unspecified) |  | > 10 µM | > 10 µM | > 10 µM | > 10 µM | > 10 µM | > 10 µM | > 10 µM | > 10 µM |  |  |  |  |  |  |  |  |  |
| Cc1oc2c(C)c3oc(=O)cc(C)c3cc2c1CN | > 100 µM |  |  | > 100 µM | > 100 µM |  | > 100 µM |  |  | 74.8 µM |  |  |  |  |  |  |  |  |
| COc1ccc(/C=C/C(c2cc(OC)c(OC)c(OC)c2)n2cncn2)cc1O (stereo unspecified) | > 100 µM | > 100 µM |  | 17.2 µM | 16.8 µM |  |  | > 100 µM | > 100 µM | 56.4 µM | 6.07 µM | 5.83 µM | 3.68 µM | 3.66 µM | 0.0506 µM | 0.0248 µM | 3.02 µM |  |
| CCOC(=O)CN(Cc1ccccc1)Cc1c(C(=O)c2ccccc2)c2ccccc2n1C(=O)c1ccccc1 | > 100 µM | > 100 µM |  | > 100 µM | > 100 µM |  | > 100 µM | > 100 µM |  | > 100 µM |  |  |  |  |  |  |  |  |
| O=C(CCC(=O)OCC1OC(O)(CC2OC(CO)C(O)C(O)C2O)C(O)C1O)OCc1ccccc1 (stereo unspecified) | > 100 µM | > 100 µM | > 100 µM | > 100 µM | > 100 µM | > 100 µM | > 100 µM |  | > 100 µM | > 100 µM |  |  |  |  |  |  |  |  |
| COC(=O)C(N)CCCC(N)C(=O)NC(C)C(=O)NC(CCC(=O)NCCCNc1ccc([N+](=O)[O-])c2[nH]c3ccccc3c(=O)c12)C(N)=O (stereo unspecified) | 20.2 µM |  |  |  | 15.2 µM | 25 µM | 13.9 µM |  | 28.8 µM | 18.4 µM |  |  |  |  |  |  |  |  |
| Clc1cccc(N=C/C=C/Nc2cccc(Cl)c2)c1 |  | 39.3 µM | 26.8 µM | 34 µM | 29.8 µM | 31.4 µM | 38.9 µM | 62.3 µM | 29.4 µM | 30.3 µM |  |  |  |  |  |  |  |  |
| CN1CCN(c2c(O)c3c(c(O)c2Cl)C(=O)C=CC3=O)CC1 | 3.04 µM | 2.6 µM | 1.2 µM | 1.38 µM | 0.38 µM | 2.65 µM | 0.656 µM |  | 1.06 µM | 4.07 µM |  |  |  |  |  |  |  |  |
| c1ccc(-c2nc3ccccc3n3nnnc23)cc1 | > 100 µM | > 100 µM | > 100 µM | > 100 µM | > 100 µM | > 100 µM |  | > 100 µM | > 100 µM | > 100 µM |  |  |  |  |  |  |  |  |
| CCCC1C(C#N)(C#N)C(C#N)=C(N)C1(C)C(C)=O (stereo unspecified) | > 100 µM | > 100 µM | > 100 µM | > 100 µM | > 100 µM | > 100 µM | > 100 µM |  | > 100 µM | > 100 µM |  |  |  |  |  |  |  |  |
| CCCN(CCC)c1c([N+](=O)[O-])cc(C(=O)N(C)C)cc1[N+](=O)[O-] | > 100 µM | > 100 µM |  | > 100 µM | > 100 µM |  | > 100 µM |  |  | > 100 µM |  |  |  |  |  |  |  |  |
| CN(C)/C=N/S(=O)(=O)c1nn2c(C=O)c(-c3cc4ccccc4oc3=O)nc2s1 | 43 µM | 25.1 µM | 20.7 µM | 2.97 µM |  | > 100 µM | > 42 µM | 36.5 µM | 32.3 µM | > 42.6 µM |  |  |  |  |  |  |  |  |
| C/C(=C/c1c(C)[nH]c(=O)[nH]c1=O)C(=O)O | > 1380 µM | > 1380 µM |  | > 1380 µM | > 1380 µM | > 1380 µM | > 1380 µM |  |  | > 1370 µM | 1030 µM |  |  |  |  |  |  | > 1380 µM |
| COc1cc(C2C3=C(N=C4SC(C(C)=O)=C(C)N42)c2ccccc2CC3)cc(OC)c1OC (stereo unspecified) | > 100 µM | > 100 µM | > 100 µM | > 100 µM | > 100 µM | > 100 µM | > 100 µM |  | > 100 µM | > 100 µM |  |  |  |  |  |  |  |  |
| CC1(CO)C(=O)OC12CCCCC2 (stereo unspecified) | > 100 µM | > 100 µM |  | > 100 µM | > 100 µM |  | > 100 µM | > 100 µM |  |  |  |  |  |  |  |  |  |  |
| COc1cc(C)cc(OC)c1/C=C/C(=O)O | > 100 µM | > 100 µM | > 100 µM | > 100 µM |  | > 100 µM | > 100 µM | > 100 µM | > 100 µM | > 100 µM |  |  |  |  |  |  |  |  |
| Cc1ccc(Nc2ccc(Nc3ccc(C)cc3S(=O)(=O)O)c3c2C(=O)c2ccccc2C3=O)c(S(=O)(=O)O)c1 | > 100 µM | > 100 µM |  |  | > 100 µM |  | > 100 µM | > 100 µM |  | > 100 µM |  |  |  |  |  |  |  |  |
| CCCCNCC(O)c1cc(-c2ccc(C(F)(F)F)cc2)nc(-c2ccc(C(F)(F)F)cc2)c1 (stereo unspecified) |  |  |  | 3.62 µM |  |  |  |  |  | 3.39 µM |  |  | 1.84 µM |  | 1.73 µM |  |  |  |
| CCc1cc2c(oc3c4ccccc4ccc23)c(=O)[nH]1 | > 10 µM | > 10 µM | > 10 µM | > 10 µM |  |  | > 10 µM | > 10 µM |  | > 10 µM |  |  |  |  |  |  |  |  |
| N#CI1OC(C(F)(F)F)(C(F)(F)F)c2ccccc21 | 30.1 µM | 31.8 µM |  | 40.8 µM | 26.8 µM | 40.3 µM | 30.5 µM |  | 54.7 µM | 52.5 µM |  |  |  |  |  |  |  |  |
| NC(CNc1ccc(O)cc1)C(=O)O (stereo unspecified) | > 100 µM |  |  | > 100 µM | > 100 µM |  | > 100 µM | > 100 µM |  | > 100 µM |  |  |  |  |  |  |  |  |
